Measurements: patent publication US11975111B2, “Dactinomycin compositions and methods for the treatment of myelodysplastic syndrome and acute myeloid leukemia” (Tiziana Life Sciences PLC, priority 2016, dated 2024)
*1 amine or outer side, *2 acyl side, *3 side chain or, on linkers, in order; H or OH if unused. Where a SMILES comes first, the peptide text is derived from it. Bridges are numbered along the chain shown (N, C = ends). Roman numbers before positions name the chains, in order. [ ]: non-standard residue; d: D form. Actinocin(9to1) = Cc1c2oc3c(C)ccc(C(=O)[*:1])c3nc-2c(C(=O)[*:2])c(N)c1=O; NMeV = CN[CH](C(=O)O)C(C)C; Sar = CNCC(=O)O

What was measured:
[1] = test system: NPM1-mutated cell line OCI/AML3; assay: Act-D induced nucleolar disintegration and apoptosis (NPM1/DAPI photographs); format: cell-based; settings: OCI/AML3, FIG. 3
Source text: NPM1=Nucleophosmin and DAPI=4′,6-diamidino-2-phenylindole—a fluorescent stain that binds strongly to A-T rich regions in DNA.

p53 = assay: Western blots of p53 activation in patient tumor cells; format: cell-based, human; settings: NPM1-mutated AML tumor cells contacted in vitro or in vivo, 2 cycles of 5 consecutive days at 12.5 μg/kg
NPM1-mutated AML = assay: Treatment of AML patients with dactinomycin alone or with low-dose cytarabine; format: in vivo, human
Description: FIG. 5 is a chart showing sequencing by the TruSight Myeloid Panel.—mutated genes (*).
FIG. 7 is a photograph of a computerized tomography (CT) scan showing pneumonitis in a subject administered dactinomycin at 15 μg/kg for 5 days.
FIGS. 9A and B are a pair of photographs depicting a bone marrow (BM) examination before and after therapy with dactinomycin alone.
Complete blood count (CBC) d=46, white blood cell 4130/mm^3, neutrophil percent (N=66%), hemoglobin (Hb)=7.7 g/dL, platelet (PLT) count 192.000/mm^3. Erythropoietin (EPO) dosage=17.8 mUl/ml (inappropriate response). Patient started on Darbopoetina.
Dactinomycin compositions of the disclosure may be administered with FLT3 inhibitors. […] There are two types of FLT3 mutations: internal tandem duplications (ITD) near the juxtamembrane domain of the receptor and point mutations in the activation loop of the tyrosine kinase domain (TKD mutations). TKD mutations comprise approximately 7% of patients, while ITD mutations are less prevalent in pediatrics and AML patients who were previously categorized as having MDS. (Fathi, A. T. et al. Eur. J. Haematol. 2017, 98: 330-336.)

[2] = Tolerability in rats, 0.5 mg/kg IV, body weight; format: in vivo; settings: over 7 days post treatment
Description: (§1) Free and formulated actinomycin D (0.5 mg/kg) was administered via IV
(§2) In another experiment, rats were also administered a single dose (0.5 mg/kg) of free and formulated Act D via IV (intravenous) injection.

[3] = Plasma dactinomycin (CMAX, 6 hr) in rat tolerability study, 0.5 mg/kg IV; format: in vivo; settings: rats, comparison in words
Description: as §1, §2

[4] = Pharmacokinetics in rats, single dose 0.3 mg/kg IV; format: in vivo
Description: Rats administered single dose (0.3 mg/kg) of unformulated and formulated Actinomycin D via IV injection. (FIG. 31)
Processed plasma samples at indicated times extracted in mixture of methanol and formic acid to determine total (free and encapsulated) API in systemic circulation.

[5] = Single dose intravenous tolerability in rats, 900 μg/kg; format: in vivo, Female Sprague Dawley rats; settings: for clinical observations, signs of toxicity: post-dose observation
Description: A side by side comparison of the tolerability of free actinomycin D (i.e., not in a nanoparticle) and four compositions comprising actinomycin D nanoparticles (NP-ActD) formulations in rats when dosed by intravenous administration.
Female Sprague Dawley rats (HSd:SD), 6-8 weeks and 150-175 g at dosing were used for these studies. This is a single dose study with observations for 14 days post-dose. On day 1 of the study, each animal received either 900 μg/kg of the free actinomycin D or a NP-ActD formulations (900 μg/kg of the active) in a fixed volume of 1 mL/kg according to the study design in the Table below.
The following parameters were monitored: clinical observations daily, mortality, body weights, and food consumption. A full necropsy will be conducted on Day 14 post-dose, at which time organ weights and macroscopic findings will be determined. The organs will be preserved for future histology and the lungs, liver, pancreas, spleen, brain and kidneys will be frozen in liquid nitrogen for measurement of actinomycin D/NP-ActD accumulation.
Blood was collected for pharmacokinetic evaluation following dosing on Day 1 at 0.083, 0.25, 0.5, 1, 2, 6, and 24 hours post dose. Serum samples will be collected for clinical chemistry and whole blood samples for hematology.

[6] = cited from earlier work

SMILES: Cc1c2oc3c(C)ccc(C(=O)NC4C(=O)NC(C(C)C)C(=O)N5CCCC5C(=O)N(C)CC(=O)N(C)C(C(C)C)C(=O)OC4C)c3nc-2c(C(=O)NC2C(=O)NC(C(C)C)C(=O)N3CCCC3C(=O)N(C)CC(=O)N(C)C(C(C)C)C(=O)OC2C)c(N)c1=O (stereo not drawn) [dactinomycin, 2-amino-N,N′-bis(hexadecahydro-2,5,9-trimethyl-6,13-bis(1-methylethyl)-1,4,7,11,14-pentaoxo-1H-pyrrolo(2,1-I)(1,4,7,10,13)oxatetra-azacyclohexadecin-10-yl)-4,6-dimethyl-3-oxo-3H-phenoxazine-1,9-dicarboxamide] (I: TVP[Sar][NMeV] / II: TVP[Sar][NMeV]; ester I:1-I:C, II:1-II:C; linker I:N-II:N via Actinocin(9to1); configuration not given here)
- nucleolar disintegration and apoptosis [1]: induced nucleolar disintegration and apoptosis
- p53 activation (Western blot) (p53): p53 activation
- mutated genes by TruSight Myeloid Panel sequencing after treatment (NPM1-mutated AML; Patient, FIG. 5): NMP1, IDH2 and STAG2 mutations not detected
- bone marrow (BM) examination after therapy (NPM1-mutated AML; before and after therapy): marked reduction of leukemic blast infiltration with partial normal hematopoietic recovery
- efficacy in clinical trials (NPM1-mutated AML; clinical trials, AML patients): about 60 % of the patients treated
- hematological recovery (NPM1-mutated AML; following one cycle of treatment, FIG. 8): hematological recovery
- CT scan finding (NPM1-mutated AML; subject administered 15 μg/kg for 5 days): pneumonitis
- body weight ([2]; listed as free API): significant decrease in body weight
- body weight ([2]; listed as free dactinomycin): significant decrease in body weight
- body weight ([2]; listed as unformulated API): adverse effect on body weight
- CMAX, total (free and encapsulated) dactinomycin in plasma [3]: lower
- Theoretical Cmax in Humans ([4]; extrapolated to humans): 7.5 ng/mL
- Cmax ([4]; rat, plasma, 0.3 mg/kg, rats, IV): 60 ng/mL
- mortality rate ([5]; 13 days post-dose): about 80%
- additional animals euthanized ([5]; Day 7 post dose, 6 rats per group): two
- more animals euthanized ([5]; Day 9, 6 rats per group): two
- animals moribund and euthanized ([5]; day 6 post-dose, 6 rats per group): 1 animal
- body weights ([5]; rats, 900 μg/kg IV single dose, FIG. 32): consistently decreased body weights
- clinical observations, signs of toxicity ([5]; rats, 900 μg/kg IV single dose, listed as free Act D): piloerection, decreased activity, bleeding at the nares, and hunched posture
- clinical observations, signs of toxicity ([5]; rats, 900 μg/kg IV single dose, listed as free ActD): piloerection and discolored urine
- animals remained ([5]; thirteen days post-dose): 1/6
- AUC0-6 hrs in patients showing adverse events ([6]; patients showing adverse events, IV 1 mg/m^2 or 1.5 mg/m^2): 4 mg·min/L
- AUC0-6 hrs, patients with adverse events versus without ([6]; ratio): 1.46 times higher
- AUC0-6 hrs in subjects not showing adverse events ([6]; subjects not showing adverse events, IV 1 mg/m^2 or 1.5 mg/m^2): 2.67 mg·min/L
